Test [1] has as its system Staphylococcus aureus. In words: Antibacterial activity against penicillin-resistant Staphylococcus aureus by broth microdilution method. The test is classed as functional. For orientation: Dilution methods test growth across graded concentrations, often in twofold steps.
In test [2] the test system is Staphylococcus aureus. In words: Antibacterial activity against methicillin-resistant Staphylococcus aureus ATCC43300 at 0.5 times of MIC measured up to 24 hrs by broth microdilution method. Conditions: time hrs <=24. The test is classed as functional, organism-based.
Test [3] relates to Staphylococcus aureus. The experiment in a line: Bactericidal activity against methicillin-resistant Staphylococcus aureus ATCC43300. The test is classed as functional.
The test system of test [4] is Staphylococcus aureus. The experiment in a line: Antibacterial activity against methicillin-resistant Staphylococcus aureus ATCC43300 by broth microdilution method. The test is classed as functional.
The subject of test [5] is Klebsiella pneumoniae. In words: Antibacterial activity against Klebsiella pneumoniae ATCC10031 by broth microdilution method. The test is classed as functional.
The test system of test [6] is Staphylococcus aureus. In words: Antibacterial activity against erythromycin-susceptible Staphylococcus aureus ATCC25923 by broth microdilution method. In kind it is functional.
Test [7] is described as follows: Ratio of MBC for bactericidal activity against methicillin-resistant Staphylococcus aureus ATCC43300 to MIC for antibacterial activity against methicillin-resistant Staphylococcus aureus ATCC43300 by broth microdilution method. The test is classed as functional.
Test [8] has as its system Bacillus subtilis. The experiment in a line: Antibacterial activity against penicillin-susceptible Bacillus subtilis ATCC9372 by broth microdilution method. The test is classed as functional.
Test [9] has as its system Staphylococcus aureus. The experiment in a line: Antibacterial activity against methicillin-resistant Staphylococcus aureus ATCC43300 at 1 times of MIC measured up to 9 hrs by broth microdilution method. The test is classed as functional, organism-based. The settings on record: time hrs <=9.
Test [10] relates to Enterococcus faecium. In words: Antibacterial activity against clinical isolate erythromycin-resistant Enterococcus faecium by broth microdilution method. In kind it is functional.
Test [11] concerns Staphylococcus aureus. The experiment in a line: Bactericidal activity against methicillin-resistant Staphylococcus aureus ATCC43300 at 2 times of MIC measured up to 24 hrs. In kind it is functional, organism-based. The settings on record: time hrs <=24.
For test [12], the system named is Enterococcus faecalis. The experiment in a line: Antibacterial activity against vancomycin-susceptible Enterococcus faecalis ATCC29212 by broth microdilution method. The test is classed as functional.
In test [13] the test system is Staphylococcus aureus. In words: Bactericidal activity against methicillin-resistant Staphylococcus aureus ATCC43300 at 4 times of MIC measured up to 24 hrs. In kind it is functional, organism-based. The settings on record: time hrs <=24.

≈ marks a conversion by molar mass, not a printed value. Calls of active or inactive are those of the source.

In the case of `CCCCCc1ccc(-c2cn(CC(=O)NNC(=O)O[C@H]3[C@H](C)[C@@H](O[C@@H]4O[C@H](C)C[C@H](N(C)C)[C@H]4O)[C@](C)(O)C[C@@H](C)CN(C)[C@H](C)[C@H]4OC(=O)O[C@]4(C)[C@@H](CC)OC(=O)[C@@H]3C)nn2)cc1`, the MIC – broadly, the smallest concentration in the dilution series that meets the test's criterion for growth inhibition – in [1] was determined as 16 µg/mL (≈ 17.2 µM); in test [4], 16 µg/mL (≈ 17.2 µM); in test [5], 32 µg/mL (≈ 34.4 µM); in [6], 8 µg/mL (≈ 8.6 µM); in test [8] it was 8 µg/mL (≈ 8.6 µM); in test [10], 8 µg/mL (≈ 8.6 µM). The MIC in test [12] worked out at 4 µg/mL (≈ 4.3 µM). In addition, the inhibition result in test [2] is “inactive”. The MBC (commonly the smallest concentration meeting the test's criterion for killing) in [3] is 126 µg/mL (≈ 135 µM). The Ratio in [7] came to 8. For the same compound, the inhibition result in test [9], in test [11] and in [13] was “Active” throughout.
Regarding `CC[C@H]1OC(=O)[C@H](C)[C@@H](OC(=O)NNC(=O)Cn2cc(-c3ccc(-c4ccccc4)cc3)nn2)[C@H](C)[C@@H](O[C@@H]2O[C@H](C)C[C@H](N(C)C)[C@H]2O)[C@](C)(O)C[C@@H](C)CN(C)[C@H](C)[C@H]2OC(=O)O[C@@]21C`, the MIC in test [1] came to 32 µg/mL (≈ 34.2 µM); in [4], 32 µg/mL (≈ 34.2 µM); in test [5], 32 µg/mL (≈ 34.2 µM); in test [6], 16 µg/mL (≈ 17.1 µM); in [8], 16 µg/mL (≈ 17.1 µM); in test [10] it was 16 µg/mL (≈ 17.1 µM). The MIC in test [12] amounted to 8 µg/mL (≈ 8.55 µM). This compound also displayed an MBC in [3] greater than 256 µg/mL. Moreover, the Ratio in [7] is listed as greater than 8.
Consider `CCCCc1ccc(-c2cn(CC(=O)NNC(=O)O[C@H]3[C@H](C)[C@@H](O[C@@H]4O[C@H](C)C[C@H](N(C)C)[C@H]4O)[C@](C)(O)C[C@@H](C)CN(C)[C@H](C)[C@H]4OC(=O)O[C@]4(C)[C@@H](CC)OC(=O)[C@@H]3C)nn2)cc1`, for which the MIC was 32 µg/mL (≈ 34.9 µM) in [1]; 32 µg/mL (≈ 34.9 µM) in test [4]; 16 µg/mL (≈ 17.5 µM) in test [5]; 8 µg/mL (≈ 8.73 µM) in test [6]; 8 µg/mL (≈ 8.73 µM) in test [8]; 16 µg/mL (≈ 17.5 µM) in [10]. The same compound displayed an MIC in [12] of 4 µg/mL (≈ 4.37 µM). The same compound had an MBC in [3] greater than 256 µg/mL. Also, the Ratio in [7] was greater than 8.
Turning to `CC[C@H]1OC(=O)[C@H](C)[C@@H](OC(=O)NNC(=O)Cn2cc(-c3ccc(C(C)(C)C)cc3)nn2)[C@H](C)[C@@H](O[C@@H]2O[C@H](C)C[C@H](N(C)C)[C@H]2O)[C@](C)(O)C[C@@H](C)CN(C)[C@H](C)[C@H]2OC(=O)O[C@@]21C`, the MIC is 32 µg/mL (≈ 34.9 µM) in test [1]; 32 µg/mL (≈ 34.9 µM) in test [4]; 16 µg/mL (≈ 17.5 µM) in test [5]; 16 µg/mL (≈ 17.5 µM) in test [6]; 16 µg/mL (≈ 17.5 µM) in test [8]; 16 µg/mL (≈ 17.5 µM) in test [10]. Besides, in test [12], 4 µg/mL (≈ 4.37 µM) was the least that counted as inhibitory (MIC). In addition, in test [3], the MBC is greater than 256 µg/mL. Moreover, the Ratio in test [7] was greater than 8.
Turning to `CC[C@H]1OC(=O)[C@H](C)[C@@H](OC(=O)NNC(=O)Cn2cc(-c3ccc(C)cc3)nn2)[C@H](C)[C@@H](O[C@@H]2O[C@H](C)C[C@H](N(C)C)[C@H]2O)[C@](C)(O)C[C@@H](C)CN(C)[C@H](C)[C@H]2OC(=O)O[C@@]21C`, the MIC was 256 µg/mL (≈ 293 µM) in test [1]; 256 µg/mL (≈ 293 µM) in test [4]; 16 µg/mL (≈ 18.3 µM) in test [5]; 32 µg/mL (≈ 36.6 µM) in [6]; 64 µg/mL (≈ 73.2 µM) in test [8]; 64 µg/mL (≈ 73.2 µM) in [10]. The same compound registered an MIC in [12] of 32 µg/mL (≈ 36.6 µM).

Values taken from ChEMBL document CHEMBL4823305, “Design, synthesis and antibacterial evaluation of novel 3-O-substituted 15-membered azalides possessing 1,2,3-triazole side chains” (2021).
